{"source": "patent US10450295B2", "about": "“Method of using an indolinone molecule and derivatives for inhibiting liver fibrosis and hepatitis” (Acclaim BioMed USA LLC, priority 2013, dated 2019)", "key": {"[1]": {"tested_on": "Human Hepatic Stellate cells (LX-2 cell line)", "assay": "MTT analysis of HSC proliferation", "format": "cell-based", "conditions": "serial dilutions, 48 hours", "protocol": "Human Hepatic Stellate cells (LX-2 cell line) (HSCs) were obtained from the Key Lab of Regenerative Medicine, Jinan University, Guangzhou, China, which were maintained in Dulbecco's Modified Eagle Medium (DMEM)+10% fetal calf serum and penicillin-streptomycin (100 unit/ml and 0.1 mg/ml, respectively), in 5% CO2 at 37° C. inside a humidified cell incubator. The culture medium was changed every three days. To test the effects of small molecule Hesperadin on the mouse and human HSCs, the cultures were treated with 0.625 μM of Hesperadin for 48 hrs. The cultures were then fixed in ice cold 70% ethanol and incubated in phosphate buffered saline with RNase (0.25 mg/ml), Propidium iodide dye (40 μg/ml) and 0.1% Triton X for an hour at room temperature. For cell cycle analysis, the Propidium iodide stained cells were examined using a flow cytometer (“BD LSRFortessa Cell Analyzer”). The proliferation of HSCs was also evaluated by the MTT staining assay with 3-(4,5-Dimethylthiazol-2-yl)-2,5-diphenyltetrazolium bromide). HSCs were plated at 1×10^4 cells/ml and culture overnight. Hesperadin (in serial dilutions) was then added into the culture medium for 48 hours. This was followed by addition of MTT (250 μg/ml) for a further 4 hours. The medium was eluted and the formazan crystal was dissolved in 100 μL of DMSO. The absorbance (at 570 nm) was measured using a BIORAD 3550 Microplate Reader. […]"}, "[2]": {"tested_on": "collagen 1A1 gene expression", "assay": "Real-time RT-PCR in HSC, collagen 1A1", "format": "cell-based, human", "conditions": "0.625 μM, FIG. 7", "protocol": "Human Hepatic Stellate cells (LX-2 cell line) (HSCs) were obtained from the Key Lab of Regenerative Medicine, Jinan University, Guangzhou, China, which were maintained in Dulbecco's Modified Eagle Medium (DMEM)+10% fetal calf serum and penicillin-streptomycin (100 unit/ml and 0.1 mg/ml, respectively), in 5% CO2 at 37° C. inside a humidified cell incubator. The culture medium was changed every three days. To test the effects of small molecule Hesperadin on the mouse and human HSCs, the cultures were treated with 0.625 μM of Hesperadin for 48 hrs. […] The proliferation of HSCs was also evaluated by the MTT staining assay with 3-(4,5-Dimethylthiazol-2-yl)-2,5-diphenyltetrazolium bromide). […] The absorbance (at 570 nm) was measured using a BIORAD 3550 Microplate Reader. […]\nCollagen type-I, -III and -VI, MMP-2, MMP-9 and TIMP-1 gene expression was determined using quantitative real-time PCR. […] Quantitation of mRNA levels was performed using a SYBR® Premix Ex Taq™ Kit (Takara) in an Applied Biosystems 7900HT Fast Real-Time PCR System. To quantify the amount of specific mRNA in the samples, a standard curve was generated for each PCR run using four amounts of the cDNA synthesized from our HSC cultures and liver samples. […] Data was analyzed using a StatView software (Abacus Concepts Inc) with Student's t-test."}, "[3]": {"tested_on": "collagen type I in fibrotic liver", "assay": "Carbon tetrachloride liver fibrosis mouse model, immunohistological staining for collagen type I", "format": "in vivo, mice", "protocol": "The ability of Hesperadin to inhibit collagen expressions in a liver fibrosis mouse model was then examined. To induce fibrosis in the liver, mice were injected with carbon tetrachloride, twice a week, for 6 weeks. In control group of mice, they were injected with DMSO/saline, twice a week for 2 weeks. For the experimental group of mice, they were injected with either 50 or 500 μg/kg Hesperadin after chronic carbon tetrachloride treatment. […] In contrast, following chronic carbon tetrachloride treatment, collagen type I was expressed strongly at the lobules, the portal areas, the lining of the sinusoid and around the central veins (FIGS. 12A and 12B). […] In mice of carbon tetrachloride treatment alone, collagen type I was strongly expressed in the periphery of the hepatic sinusoids. Forty female ICR mice (6 weeks old) were acquired from the MOE Key laboratory for Regenerative Medicine. To induce liver fibrosis, the mice were injected i.p. with carbon tetrachloride (1.65 ml/kg body weight suspended in 0.1 ml olive oil) twice per week for a total of 6 weeks. In the control group, mice received carbon tetrachloride injection for 6 weeks followed by DMSO or saline injections, twice a week, for two weeks. In the experimental group, mice received carbon tetrachloride for 6 weeks followed by i.p. injections of 50 μg/kg or 500 μg/kg Hesperadin, twice a week, for two weeks. […] The extent of fibrosis was scored according to Zhou, et al. (5): 1=thickened perivenular collagen and a few thin collagen septa; 2=thin septa with incomplete bridging between portal regions; 3=thin septa and extensive bridging; 4=thickened septa with complete bridging of portal regions and a nodular appearance. Collagen content was measured with a Universal Imaging (Chester, Pa.) analysis system. Briefly, trichrome-stained liver sections were analysed using an Axioskope 50 microscope (CarlZeiss Lab). […] Collagen accumulation was calculated as the percentage of the total field at ×40 magnifications that was stained blue. The arrangement and morphology of the hepatocytes will also be examined and recorded. […]"}, "[4]": {"tested_on": "human liver stellate cells", "assay": "Cell death assay (MTT assay) SAR screening of Hesperadin related derivatives", "format": "cell-based", "conditions": "FIGS. 14A through 14T"}}, "note": "Entries after “also recorded” stand apart in the source; their conditions may differ.", "data": [{"smiles": "CCS(=O)(=O)Nc1ccc2c(c1)/C(=C(/Nc1ccc(CN3CCCCC3)cc1)c1ccccc1)C(=O)N2", "note": "[Hesperadin, (Z)—N-(2-oxo-3-(Phenyl(4-(piperidin-1-ylmethyl)phenylamino)methylene)indolin-5-yl)ethanesulfonamide]", "values": [{"measurement": "HSC proliferation (MTT, optical density)", "setting": "[1]", "result": "inhibited HSC proliferation in a dose dependent manner; also recorded: suppressed HSC proliferation in a dose-dependent manner"}, {"measurement": "Collagen 1A1 mRNA expression", "setting": "[2]", "result": "confirmed by real-time RT-PCR analysis"}, {"measurement": "collagen type I in histological liver sections", "setting": "[3]; 50 μg/kg i.p. twice a week for two weeks after 6 weeks CCl4, mice", "result": "less collagen type I evident"}, {"measurement": "collagen type I in histological liver sections", "setting": "[3]; 500 μg/kg i.p. twice a week for two weeks after 6 weeks CCl4, mice", "result": "less collagen type I evident; also recorded: significantly less collagen staining"}, {"measurement": "quantified intensity of collagen type I staining", "setting": "[3]; 500 μg/kg, FIG. 13, p<0.05", "result": "significant reduction in collagen type I production and expression"}, {"measurement": "percentage of inhibition, cell death assay (MTT), relative potency", "setting": "[4]", "result": "most potent derivative"}]}]}
